Here are results for 1 compound from patent US20150368195A1, “INDOLINE COMPOUNDS FOR TREATMENT AND/OR PREVENTION OF INFLAMMATION DISEASES” (Taipei Medical University, priority 2014, published 2015).

Assay [1] deals with collagen I. The assay can be described thus: TGF-β-induced collagen I production, Western blot. The class given is cell-based, human. The settings on record: WI-38 lung fibroblasts; 1 μM pretreatment; TGF-β 10 ng/mL 24 h. Here is the method: (§1) Western blot analysis was performed. First, WI-38 lung fibroblasts were incubated with different concentrations of MPT0E028 (0.01, 0.03, 0.1, 0.3, or 1 μM) (FIG. 10A) or MPT0G009 (0.01, 0.03, 0.1, 0.3, or 1 μM) (FIG. 10B) for 30 min before and during incubation for 2 h with TGF-β (10 ng/mL). WI-38 lung fibroblasts were incubated with 1 μM MPT0E028 and MPT0G009 for 30 min and following another incubation for 2 h with 1 U/ml thrombin (FIG. 10C) and 10 nM ET-1 (FIG. 10D). The collagen I production from WI-38 lung fibroblasts stimulated by 10 ng/mL TGF-β for 24 h was inhibited with 1 μM MPT0E028 and MPT0G009 pretreatment (FIG. 10E).
WI-38 cells, a normal human embryonic lung fibroblast cell line, were obtained from American Type Culture Collection (Manassas, Va.). […]
Western blot analyses were performed as described previously (Chen B C, Chang Y S, Kang J C, Hsu M J, Sheu J R, Chen T L, et al. Peptidoglycan induces nuclear factor-kappaB activation and cyclooxygenase-2 expression via Ras, Raf-1, and ERK in RAW 264.7 macrophages. J Biol Chem 2004; 279:20889-97). […] The immunoreactivity was detected using enhanced chemiluminescence (ECL) following the manufacturer's instructions. Quantitative data were obtained using a computing densitometer with scientific imaging systems (Kodak, Rochester, N.Y.). […]
(A western blot detects proteins with antibodies after separation by electrophoresis.)

Assay [2] concerns CTGF. The assay can be described thus: pro-fibrogenic mediator-induced CTGF production, Western blot. It is filed as cell-based, human. The settings on record: WI-38 lung fibroblasts. As for the experimental part: as §1
WI-38 cells, a normal human embryonic lung fibroblast cell line, were obtained from American Type Culture Collection (Manassas, Va.). Cells were grown in MEM nutrient mixture, containing 10% FCS, 2 mM L-glutamine, 0.1 mM NEAA, 1 mM sodium pyruvate, 50 U/ml penicillin G, and 100 μg/ml streptomycin, in a humidified 37° C. incubator with 5% CO2 Cells were used between passages 18 and 30 for all experiments. After reaching confluence, cells were seeded onto 6-cm dishes for immunoblotting.
Western blot analyses were performed as described previously (Chen B C, Chang Y S, Kang J C, Hsu M J, Sheu J R, Chen T L, et al. Peptidoglycan induces nuclear factor-kappaB activation and cyclooxygenase-2 expression via Ras, Raf-1, and ERK in RAW 264.7 macrophages. J Biol Chem 2004; 279:20889-97). Briefly, WI-38 lung fibroblasts were cultured in 6-cm dishes. After reaching confluence, cells were pretreated with specific inhibitors (E028 and G009) as indicated for 30 min, and then treated with the vehicle (H2O) or 10 ng/ml TGF-β for 2 h (CTGF assay) or 24 h (collagen I assay). Whole-cell lysates ([…]) were subjected to 12% (CTGF) or 8% (collagen I) SDS-PAGE, and transferred onto a polyvinylidene difluoride membrane which was then incubated in TBST buffer (150 mM NaCl, 20 mM Tris-HCl, and 0.02% Tween 20; pH 7.4) containing 5% BSA. Proteins were visualized by specific primary antibodies and then incubated with HRP-conjugated secondary antibodies. The immunoreactivity was detected using enhanced chemiluminescence (ECL) following the manufacturer's instructions. Quantitative data were obtained using a computing densitometer with scientific imaging systems (Kodak, Rochester, N.Y.).
To determine whether the inhibitory effects of MPT0E028 and MPT0G009 on pro-fibrogenic mediators (TGF-β, thrombin, and ET-1) were related to the modulation of CTGF and Collagen I production, Western blot analysis was performed. First, WI-38 lung fibroblasts were incubated with different concentrations of MPT0E028 (0.01, 0.03, 0.1, 0.3, or 1 μM) (FIG. 10A) or MPT0G009 (0.01, 0.03, 0.1, 0.3, or 1 μM) (FIG. 10B) for 30 min before and during incubation for 2 h with TGF-β (10 ng/mL). […] Furthermore, we examined the effects of MPT0E028 and MPT0G009 on other pro-fibrogenic mediators. As shown in FIGS. 10C and 10D, WI-38 lung fibroblasts were incubated with 1 μM MPT0E028 and MPT0G009 for 30 min and following another incubation for 2 h with 1 U/ml thrombin (FIG. 10C) and 10 nM ET-1 (FIG. 10D).

Regarding `O=C(/C=C/c1ccc2c(c1)CCN2S(=O)(=O)c1ccccc1)NO` [MPT0E028], in assay [1], the “collagen I production” value was “inhibited”. In assay [2] (1 μM, 10 nM ET-1 2 h), the “ET-1-induced CTGF expression” value is given as “inhibited”. In addition, the “thrombin-induced CTGF expression” value in assay [2] (1 μM, 1 U/ml thrombin 2 h) is reported as “inhibited”. Further, the “TGF-β-induced CTGF production” value in assay [2] (0.01-1 μM, TGF-β 10 ng/mL 2 h) is “significantly inhibited”.
